≈ marks a conversion by molar mass, not a printed value.
Columns and labels:
[1] = biological target: T1, angiotensin II receptor (Bos taurus, UniProt P25104); experiment: Interaction with the angiotensin II receptor in membrane fractions of the adrenal gland cortex (bovine), 3H-angiotensin II binding; conditions: 3H-angiotensin II 3-5 nM, 60 min at room temperature, read-out: Ki, specific binding of 3H-angiotensin II
T1 construct: partially purified membrane fractions of bovine AGC using radioactive angiotensin II; from tissue; host or cells: bovine adrenal gland cortex, partially purified membrane fractions
T1 sequence (P25104 1-359): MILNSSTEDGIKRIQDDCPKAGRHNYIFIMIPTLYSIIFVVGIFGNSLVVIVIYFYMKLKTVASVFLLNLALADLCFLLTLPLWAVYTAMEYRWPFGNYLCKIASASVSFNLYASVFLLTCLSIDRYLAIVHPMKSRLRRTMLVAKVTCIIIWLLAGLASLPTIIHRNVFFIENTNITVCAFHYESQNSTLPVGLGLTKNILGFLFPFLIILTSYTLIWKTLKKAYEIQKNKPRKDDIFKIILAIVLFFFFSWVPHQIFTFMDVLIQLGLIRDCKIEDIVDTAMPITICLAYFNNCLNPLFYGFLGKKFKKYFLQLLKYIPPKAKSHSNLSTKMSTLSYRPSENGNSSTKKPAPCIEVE
Excerpt: Interaction of the compounds according to the invention with the angiotensin II receptor in membrane fractions of the adrenal gland cortex (bovine)
Bovine adrenal gland cortices (AGC), which have been freshly removed and carefully freed from gland medulla, are comminuted in sucrose solution (0.32M) with the aid of an Ultra-Turrax (Janke & Kunkel, Staufen i.B.) to give a coarse membrane homogenate and partially purified in two centrifugation steps to give membrane fractions. The receptor binding investigations are carried out on partially purified membrane fractions of bovine AGC using radioactive angiotensin II in an assay volume of 0.25 ml, which specifically contains the partially purified membranes (50-80 μg), ^3 H-angiotensin II (3-5 nM), test buffer solution (50 mM Tris, pH 7.2, 5 mM MgCl2) and the substances to be investigated. After an incubation time of 60 min at room temperature, the unbound radioactivity of the samples is separated by means of moistened glass fibre filters (Whatman GF/C) and the bound radioactivity is measured […] in a scintillation cocktail after washing the protein with ice-cold buffer solution (50 mM Tris/HCl, pH 7.4, 5% PEG 6000). The analysis of the raw data was carried out using computer programs to give Ki or IC50 values (Ki : IC50 values corrected for the radioactivity used; IC50 values: concentration at which the substance to be investigated causes a 50% inhibition of the specific binding of the radioligand).

[2] = test system: isolated rabbit aorta rings; contraction induced by angiotensin II (AII); experiment: Inhibition of vascular contraction in isolated rabbit aorta rings induced by angiotensin II (AII); assay type: cell-based; conditions: Oryctolagus cuniculus; isolated rabbit aorta rings in vitro, 37° C.; based on 3rd = submaximal agonist concentration; read-out: IC50 against contractions induced by AII
Method: Investigation of the inhibition of the contraction induced by agonists
Rabbits of either sex are stunned by a blow to the back of the head and bled out, or in some cases anaesthetised with Nembutal (about 60-80 mg/kg i.v.) and sacrificed by opening the thorax. The thorax aorta is removed, freed from adhering connective tissue, divided into ring segments 1.5 mm wide and individually transferred under an initial loading of about 3.5 g to 10 ml organ baths containing Krebs-Henseleit nutrient solution, which is temperature-controlled at 37° C. and aerated with 95% O2 /5% CO2, of the following composition: 119 mmol/l of NaCl; 2.5 mmol/l of CaCl2 ×2H2 O; 1.2 mmol/l of KH2 PO4; 10 mmol/l of glucose; 4.8 mmol/l of KCl; 1.4 mmol/l of MgSO4 ×7 H2 O and 25 mmol/l of NaHCO3.
The contractions are detected isometrically by Statham UC2 cells by means of bridge amplifiers (ifd Mulheim or DSM Aalen) and digitalised and assessed by means of A/D converters (System 570, Keithley Munich). Agonist dose response curves (DRC) are plotted hourly. With each DRC, 3 or 4 individual concentrations are applied to the baths at a 4 min interval. After the end of the DRC and subsequent washing-out cycles (16 times in each case about 5 sec/min with the abovementioned nutrient solution), a 28-minute rest or incubation phase follows, during which the contractions as a rule reach the starting value again.
The height of the 3rd DRC, in a normal case, is used as a reference variable for the assessment of the test substance to be investigated in further runs, which is applied to the baths in the following DRCs in increasing doses in each case at the start of the incubation period. Each aorta ring is in this case stimulated for the whole day, always with the same agonist.
Agonists and their standard concentrations (application
For the calculation of the IC50 (concentration at which the substance to be investigated causes a 50% inhibition), the effect is in each case based on the 3rd=submaximal agonist concentration.

[3] = test system: smooth muscle cells; experiment: Inhibition of the proliferation of smooth muscle cells (3H-thymidine incorporation); assay type: cell-based, rats or pigs; conditions: 10^-6 M, stimulated with AII, serum or other factors
Method: Investigation of the inhibition of the proliferation of smooth muscle cells by the compounds according to the invention
To determine the antiproliferative action of the compounds, smooth muscle cells are used which are obtained from aortas of rats or pigs by the media explant technique [R. Ross, J. Cell. Biol. 50, 172, 1971]. The cells are inoculated into suitable culture dishes, as a rule 24-hole plates, and cultured at 37° C. for 2-3 days in medium with addition of serum, 2 mmol L-glutamine and 15 mmol HEPES, pH 7.4 in 5% CO2. The cells are then synchronised by withdrawal of serum for 2-3 days and then stimulated into growth with AII, serum or other factors. Test compounds are simultaneously added. […]

Ki [1] | IC50 [2] | Structure (SMILES) | inhibition at 1 µM [3]
42 nM | 0.23 µg/mL (≈ 0.528 µM) | CCCCc1cc2ccccc2c(=O)n1Cc1ccc(-c2ccccc2-c2nnn[nH]2)cc1 [Example 2, 3-Butyl-2-{[2'-(tetrazol-5-yl)-biphenyl-4-yl]methyl}-isoquinolin-1(2H)-one] | 
750 nM | 0.84 µg/mL (≈ 2.06 µM) | CCc1cc2ccccc2c(=O)n1Cc1ccc(-c2ccccc2-c2nnn[nH]2)cc1 [Example 4, 3-Ethyl-2-{[2'-(tetrazol-5-yl)-biphenyl-4-yl]methyl}-isoquinolin-1(2H)-one] | 
2000 nM | > 1 µg/mL | O=c1c2ccccc2cc(-c2ccccc2)n1Cc1ccc(-c2ccccc2-c2nnn[nH]2)cc1 [Example 6, 3-Phenyl-2-{[2'-(tetrazol-5-yl)-biphenyl-4-yl]methyl}-isoquinolin-1(2H)-one] | 70%

Source: patent US5407942A, “Biphenylmethyl-substituted pyridones” (Bayer Aktiengesellschaft, priority 1992, dated 1995)
